# Laboratory results: article PMC7955072 (Nature Communications, 2021)
# Where “and” joins values, the source holds several entries; their conditions need not be identical. Equal values may be shown once. Entries after “also recorded” stand apart in the source; their conditions may differ.
# Experiments:
# [1] = tested on: protein translation in rabbit reticulocyte lysate; experiment: In vitro translation assay of luciferase mRNA in rabbit reticulocyte lysate; conditions: replicates I-III
# Method: (§1) After incubating at 30 °C for 1.5 h, 2.5 μL of the reaction was transferred to a 384-well plate and mixed with 25 μL of Luciferase Assay Reagent (Promega). The luminescence was read on a FlexStation 3 multimode microplate reader (Molecular Devices).
# [2] = tested on: protein translation in rabbit reticulocyte lysate; experiment: Rescue of RM-A-inhibited in vitro translation by C-terminal truncated human IleRS or its variants; conditions: 200 nM RM-A; 3 μM C-terminal truncated human IleRS R459A
# Method: as §1
# [3] = tested on: ovarian cancer and prostate cancer growth; conditions: cited from earlier work
# [4] = tested on: other AARS family members (LeuRS, ValRS); conditions: cited from earlier work
# Candida albicans = tested on: Candida albicans; parameters: method as in PMID 1429226; conditions: pH 3.0; cited from earlier work
# [5] = tested on: ScIleRS Thr571 to Tyr or Arg variants; experiment: TSA, ScIleRS with Thr571 mutated to Tyr or Arg; format: binding, Saccharomyces cerevisiae
# Method: The binding of RM-A to IleRS and the impact of intermediate analogue (Ile-AMS, MedChemExpress) or substrates on binding were evaluated by the fluorescence-based thermal shift assay (TSA). Ligand binding usually stabilizes the protein during the thermal denaturation process, and tighter binding usually causes a larger positive shift in the protein melting temperature (Tm)[45]. Briefly, mixtures with a final volume of 20 μL containing 150 mM NaCl, 100 mM HEPES (pH 7.5), 10% glycerol, 5 mM DTT, 2 μg of IleRS, 4× SYPRO orange fluorescence dye (Sigma-Aldrich) and different ligands (50 μM RM-A, 2 mM L-isoleucine, 2 mM ATP, or 50 μM Ile-AMS) were prepared in 96-well plates. The mixtures were incubated at 25 °C for 10 min and then heated from 25 °C to 95 °C at a rate of 1 °C/min. The fluorescence intensity was recorded by a StepOnePlus Real-Time PCR instrument (Life Technologies), and the maximums of the first derivatives were determined to calculate Tm values. Each Tm value was an average of triple assays.
# [6] = tested on: protein translation in rabbit reticulocyte lysate; experiment: Rescue of RM-A-inhibited in vitro translation by C-terminal truncated ScIleRS or its variants; conditions: for Luciferase luminescence, 200 nM RM-A: replicates I-III
# Method: as §1
# [7] = cited from earlier work
# osteoclasts (OCs) = conditions: cited from earlier work
smiles,measurement,setting,value
"CCCC[C@@]1(OC(=O)CCC(=O)O)CC[C@]2(CC[C@H](C)[C@@H](C/C=C(C)/C=C/[C@H](O)[C@@H](C)/C=C/C(=O)O)O2)O[C@H]1/C=C/C(C)=C/C(=O)O [RM-A, reveromycin A]",Luminescence (in vitro protein translation),[1]; RM-A Conc 2 nM,190845 and 181490 and 183251
same,Luminescence (in vitro protein translation),[1]; RM-A Conc 8 nM,186149 and 190937 and 185903
same,Luminescence (in vitro protein translation),[1]; RM-A Conc 20 nM,175716 and 187102 and 188453
same,Luminescence (in vitro protein translation),[1]; RM-A Conc 40 nM,163497 and 184611 and 167689
same,Luminescence (in vitro protein translation),[1]; RM-A Conc 80 nM,7616.05 and 18001.9 and 7173.32
same,Luminescence (in vitro protein translation),[1]; RM-A Conc 200 nM,0 and 17.007 and 33.997
same,Luminescence (in vitro protein translation),[1]; RM-A Conc 800 nM,17.076 and 8.503 and 25.498
same,Luminescence (in vitro protein translation),[1]; RM-A Conc 4000 nM,0 (2×) and 50.995
same,protein translation rescued,[2],about 1%
same,ovarian cancer and prostate cancer growth in vivo,[3],inhibit
same,"inhibition of other AARS family members (LeuRS, ValRS)",[4],insensitive; also recorded: does not show significant inhibition
same,MIC,Candida albicans,3 µM
same,binding of RM-A to ScIleRS variant (TSA),[5],blocked the binding
same,protein translation rescued,"[6]; 200 nM RM-A, 3 μM C-terminal truncated ScIleRS variant with 600GRKMSKSLK608 replaced by -GSGS-",approximately 80%
same,"Luciferase luminescence, 200 nM RM-A",[6]; 1 μM LeuRS (control),27.35 and 44.205 and 52.747
same,"Luciferase luminescence, 200 nM RM-A",[6]; 1 μM ScIleRS D527A,63.694 and 45.571 and 34.895
same,"Luciferase luminescence, 200 nM RM-A",[6]; 1 μM ScIleRS F48A,235.026 and 174.094 and 121.866
same,"Luciferase luminescence, 200 nM RM-A",[6]; 1 μM ScIleRS F48Y,90.991 and 72.914 and 115.108
same,"Luciferase luminescence, 200 nM RM-A",[6]; 1 μM ScIleRS F191A,156.784 and 298.475 and 281.964
same,"Luciferase luminescence, 200 nM RM-A",[6]; 1 μM ScIleRS P90A,35.934 and 81.508 and 9.028
same,"Luciferase luminescence, 200 nM RM-A",[6]; 1 μM ScIleRS R454A,2038.19 and 7956.68 and 7915.89
same,"Luciferase luminescence, 200 nM RM-A",[6]; 1 μM ScIleRS R460A,63.694 and 82.028 and 79.355
same,"Luciferase luminescence, 200 nM RM-A",[6]; 1 μM ScIleRS R462A,219.125 and 149.005 and 122.71
same,"Luciferase luminescence, 200 nM RM-A",[6]; 1 μM ScIleRS T572A,2721.39 and 8649.69 and 8296.21
same,"Luciferase luminescence, 200 nM RM-A",[6]; 1 μM ScIleRS V89A,11067.8 and 10750 and 22533.8
same,"Luciferase luminescence, 200 nM RM-A",[6]; 1 μM ScIleRS W402A,203.886 and 487.005 and 223.56
same,"Luciferase luminescence, 200 nM RM-A",[6]; 1 μM ScIleRS W456A,72.793 and 72.914 and 17.634
same,"Luciferase luminescence, 200 nM RM-A",[6]; 1 μM ScIleRS W529A,72.281 and 54.7 and 8.724
same,"Luciferase luminescence, 200 nM RM-A",[6]; 1 μM ScIleRS Y571A,36.141 and 88.172 and 61.066
same,"Luciferase luminescence, 200 nM RM-A",[6]; 1 μM ScIleRS del_KMSKS,1832.65 and 1584.88 and 8043.93
same,"Luciferase luminescence, 200 nM RM-A",[6]; 3 μM C-terminal truncated ScIleRS Wild-type,109159 and 108773 and 113203
same,"Luciferase luminescence, 200 nM RM-A",[6]; 3 μM LeuRS (control),68.753
same,"Luciferase luminescence, 200 nM RM-A",[6]; 3 μM ScIleRS D527A,8750.65 and 7744.02 and 12892
same,"Luciferase luminescence, 200 nM RM-A",[6]; 3 μM ScIleRS F48A,2036.32 and 2422.33 and 1991.71
same,"Luciferase luminescence, 200 nM RM-A",[6]; 3 μM ScIleRS F48Y,94.913 and 96.194 and 77.119
same,"Luciferase luminescence, 200 nM RM-A",[6]; 3 μM ScIleRS F191A,75050.4 and 67335.6 and 51978.3
same,"Luciferase luminescence, 200 nM RM-A",[6]; 3 μM ScIleRS P90A,99 and 117.664 and 109.334
same,"Luciferase luminescence, 200 nM RM-A",[6]; 3 μM ScIleRS R454A,116437 and 113410 and 111486
same,"Luciferase luminescence, 200 nM RM-A",[6]; 3 μM ScIleRS R460A,1567.03 and 1752.95 and 2655.99
same,"Luciferase luminescence, 200 nM RM-A",[6]; 3 μM ScIleRS R462A,27718.3 and 25034.8 and 41655.4
same,"Luciferase luminescence, 200 nM RM-A",[6]; 3 μM ScIleRS T572A,111134 and 106950 and 105037
same,"Luciferase luminescence, 200 nM RM-A",[6]; 3 μM ScIleRS V89A,100692 and 113636 and 118400
same,"Luciferase luminescence, 200 nM RM-A",[6]; 3 μM ScIleRS W402A,50779.2 and 51210.1 and 59141.2
same,"Luciferase luminescence, 200 nM RM-A",[6]; 3 μM ScIleRS W449A,115488 and 110666 and 106192
same,"Luciferase luminescence, 200 nM RM-A",[6]; 3 μM ScIleRS W456A,51.771 and 96.194 and 77.119
same,"Luciferase luminescence, 200 nM RM-A",[6]; 3 μM ScIleRS W529A,60.194 and 17.229 and 34.495
same,"Luciferase luminescence, 200 nM RM-A",[6]; 3 μM ScIleRS Y571A,11774.7 and 10611.3 and 9010.55
same,"Luciferase luminescence, 200 nM RM-A",[6]; 3 μM ScIleRS del_KMSKS,101448 and 100214 and 102556
same,bone loss in ovariectomized mice,[7],suppress bone loss
same,apoptosis of osteoclasts (OCs),osteoclasts (OCs),potently induce the apoptosis
same,"more cytotoxic to OCs than to other types of cells, including OC progenitor cells",osteoclasts (OCs),at least 100 times
